Several values for one entry are separate records, joined by “and”; a condition that tells them apart may be missing. Equal values may be shown once.

Broadly, the bioavailability is dose-corrected exposure relative to a reference, in per cent.

A short description of series [1]: Pharmacokinetic evaluation after intravenous injection or intragastric administration, plasma LC-MS/MS. In kind it is in vivo, SD rats. The text has this:
After the compounds were given to SD rats by intravenous injection or intragastric administration, concentrations of related compounds in plasma were detected by an LC-MS/MS method, and pharmacokinetics and absolute bioavailability of the compounds prepared in Embodiments 13 and 14 in the rats were preliminarily evaluated.
2. Line: Sprague Dawley rats, sex: male, weight: 200 g to 250 g
Pharmacokinetic characteristics of rodents after intravenous injection and oral administration of the compounds were tested by a standard scheme. In the experiment, a candidate compound was prepared into a clear solution, and given to the rats by single intravenous injection and intragastric administration. A solvent for intravenous injection was a certain proportion of N,N-dimethylacetamide (DMA) and 10% Solutol HS15 solution, and a solvent for oral administration was a certain proportion of sodium carboxymethyl cellulose (CMC) suspension. 5 minutes, 15 minutes, 30 minutes, 1 hour, 2 hours, 4 hours, 6 hours, 8 hours, 10 hours and 24 hours after drug administration, blood samples of the animals were respectively collected into K2EDTA anticoagulation tubes, which were temporarily stored on ice until centrifugation.

In a further series the test system is EPO (erythropoietin). The experiment in a line: Pharmacological evaluation: influence of continuous administration on EPO level. Type of series: in vivo, SD rats. The protocol:
This experiment was intended to evaluate an influence of continuous administration of the compounds prepared in Embodiments 12, 13 and 14 on EPO (erythropoietin) in SD rats.
• Line: SD (Sprague Dawley) • Weeks of age and weight: 8 weeks, weight 200 g to 220 g • Sex: male • Animal source: Beijing Vital River Laboratory Animal Technology Co., Ltd.
• Positive drug: Enarodustat • Description: commercialized drugs approved for marketing in Japan • Specification and content: 2 mg JTZ-951(Enarodustat), 140 capsules/box
After a week of adaptive feeding, SD rats were randomly divided into 3 groups, 6 rats in each group, which were namely a blank group, a positive drug group (Enarodustat) and a group of compound in Embodiment 12. An Enarodustat tablet was crushed by a mortar, then quantitatively added with 0.5% methyl cellulose, and magnetically stirred and mixed evenly; and the compound prepared in Embodiment 12 was weighed, then quantitatively added with 0.5% methyl cellulose, and magnetically stirred and mixed evenly. […] The drug was given once a day for 14 consecutive days, and blood was taken to measure an EPO level 4 hours after the drug was given on the 14th day.

Series [2] can be described thus: Subacute toxicity test, 14 consecutive days. Type of series: in vivo. The settings on record: SD rats, 10 mg/kg once a day for 14 consecutive days, in words. The text has this: A proper amount of the compound in Embodiment 13 and a proper amount of the compound in Embodiment 14 were weighed by a balance and respectively placed into proper glass bottles, then DMSO, Solutol HS-15 and 0.9% physiological saline (in a ratio of v: v: v = 5%: 10%: 85%) were sequentially added into the glass bottles, and vortexed and stirred, and a drug dissolution condition was continuously concerned in the stirring process until the compounds were completely dissolved/suspended. Finally, drug solutions of the compound in Embodiment 13 and the compound in Embodiment 14 with a concentration of 0.67 mg/mL were prepared for current use.
An animal room was well ventilated, equipped with an air-conditioner, kept at a temperature of 20°C and 25°C and a humidity of 40% to 70%, and in light and dark conditions for 12 hours respectively, and the animals could eat and drink freely. SD rats with good physical signs could be selected for this experiment after being adaptively fed for at least 3 days before administration. Table 23 Source and number of experimental animals
Any operation on the experimental animals in this experiment met the requirements of the "Regulations for the Administration of Affairs Concerning Experimental Animals" issued by the Ministry of Science and Technology of the People's Republic of China. In this experiment, a solvent control group, an administration group of compound in Embodiment 13 and an administration group of compound in Embodiment 14 were set up. Administration dosages of the administration group of compound in Embodiment 13 and the administration group of compound in Embodiment 14 were (10 mg/kg) once a day for 14 consecutive days, while the same amount of blank solvent was given to the blank control group, and administration volumes were all 15 mL/kg. After each administration, symptoms and degrees of toxic reaction of the animals were observed. Recovery observation was carried out for 7 days after the last administration. […]
During the experiment, experimenters and veterinarians should observe physical signs and health conditions of the experimental animals continuously. Any abnormal manifestations of the animals, such as pain, depression and decreased activity should be recorded in original records of the experiment. […]
During the experiment, all animals were observed beside cages at least twice a day, and observed continuously for 2 hours after the drug administration. During the drug administration, if the animals had serious side effects or died, observation results should be recorded in a corresponding form. […]
The animals should be weighed before daily drug administration for 14 consecutive days, and the weights were recorded in a corresponding form. Food intakes of the experimental animals were detected during the experiment. […]

Where [3] appears, read: SD rats, in words, compared with Enarodustat in the table.

On to `O=C(O)CNC(=O)c1c(O)cc(C2CCc3ccccc3C2)n2ncnc12` (single isomer, unassigned) [Compound in Embodiment 13, [(7-hydroxy-5-(1,2,3,4-tetrahydronaphthalene-2-yl)-[1,2,4]triazolo[1,5-a]pyridine-8-carbonyl)amino]acetic acid], for which, in series [1] (setting [3]), the half-lives entry is on record as “obviously longer” and the in-vivo exposure entry is given as “higher”. Also, the AUC in series [1] (male, Sprague-Dawley, rat, plasma, male SD rats, route and dose not given, read-out: Concentration integral AUC) amounted to 19100 ng·h/mL. The half-life in series [1] (male, Sprague-Dawley, rat, plasma, male SD rats, route and dose not given, read-out: Half-life period T1/2 (converted)) is 2.02 h. Moreover, the bioavailability in series [1] (male, Sprague-Dawley, rat, plasma, oral, male SD rats, intragastric vs intravenous, read-out: Bioavailability F) stood at 29.4%. Moreover, the “EPO levels in serum of the rats” value in the series on EPO (erythropoietin) (after 14 days of administration, in words) is reported as “increased significantly”. The “EPO levels in plasma of the rats” value in the series on EPO (erythropoietin) (after administration, compared with the group of positive drug Enarodustat, in words) is “significantly higher”. For the same compound, the “EPO level after 14 days of administration” value with EPO (erythropoietin) (individual rats 1-6, 0.3 mg/mL, 10 mL/kg, once a day for 14 consecutive days, blood 4 hours after the drug on the 14th day, 2904.6 pg/mL was an upper limit of measurement) was ≥ 2904.6 pg/mL (3×) and 2697.4 pg/mL and 2658.5 pg/mL and 2772.1 pg/mL. The “EPO level after 14 days of administration, Mean” value in the series on EPO (erythropoietin) (mean of 6 rats, 0.3 mg/mL, 10 mL/kg, once a day for 14 consecutive days, blood 4 hours after the drug on the 14th day, 2904.6 pg/mL was an upper limit of measurement) was 2807.0 pg/mL. Besides, in series [2] (compared with Enarodustat), the toxicities entry is on record as “lower than that of Enarodustat”. In addition, the gastrointestinal findings result in series [2] is “no obvious gastrointestinal necrosis, and bleeding spots or flatulence in a black stomach part”.

(Values after patent EP4578855A1, “PROLYL HYDROXYLASE INHIBITOR AND USE THEREOF” (Suzhong Pharmaceutical Group Co., Ltd., priority 2022, dated 2024).)
